Data from US10351547B2, “Somatostatin modulators and uses thereof” (priority 2016, dated 2019).
Where two headings read alike, the source gives them in different places.

Biological target: human SSTR2 (Homo sapiens (Human), UniProt P30874)
Assay: Human SSTR2 intracellular cAMP functional assay for agonists (HTRF)
Format: cell-based
Outline: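 Cells bearing human SSTR2 exposed to compound for 20 minutes at 37 °C; after lysis, cAMP measured by time-resolved fluorescence (HTRF) and converted via a standard curve. EC50 calculated from cAMP versus compound concentration.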

[1] = CHO-K1 cells stably expressing human SSTR2, NKH477-stimulated cAMP, read-out: EC50 (inhibition of cAMP activities via human SST2R)

Sequence of human SSTR2 (P30874 whole entry): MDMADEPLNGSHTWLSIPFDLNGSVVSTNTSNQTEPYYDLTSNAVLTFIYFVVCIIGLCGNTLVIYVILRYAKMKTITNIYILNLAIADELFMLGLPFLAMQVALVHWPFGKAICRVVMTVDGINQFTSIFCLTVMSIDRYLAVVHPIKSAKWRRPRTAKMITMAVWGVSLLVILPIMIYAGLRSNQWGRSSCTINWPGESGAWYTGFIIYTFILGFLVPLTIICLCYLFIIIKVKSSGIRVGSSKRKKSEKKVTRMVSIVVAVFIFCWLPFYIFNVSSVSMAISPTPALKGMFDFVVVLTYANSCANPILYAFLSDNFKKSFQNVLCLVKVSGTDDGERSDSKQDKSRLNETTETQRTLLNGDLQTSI

**Q.** With Cc1cc(F)cc(-c2cnc3ccc(-c4cc(F)cc(C#N)c4O)cc3c2N2CC(CNCCCO)C2)c1 [2-54, 5-fluoro-3-[3-(3-fluoro-5-methylphenyl)-4-(3-{[(3-hydroxypropyl)amino]methyl}azetidin-1-yl)quinolin-6-yl]-2-hydroxybenzonitrile] as the compound, how does the EC50 [1] read?
**A.** < 0.01 µM

**Q.** CCCNCC1CN(c2c(-c3cc(C)cc(F)c3)cnc3ccc(-c4cc(F)c5[nH]c(=O)[nH]c5c4)cc23)C1 [2-55, 4-fluoro-6-[3-(3-fluoro-5-methylphenyl)-4-{3-[(propylamino)methyl]azetidin-1-yl}quinolin-6-yl]-2,3-dihydro-1H-1,3-benzodiazol-2-one] was tested. Which EC50 [1] did it give?
**A.** < 0.01 µM

**Q.** For N#Cc1cccc(-c2ccc3ncc(-c4cc(F)cc(F)c4)c(N4CCC(N)CC4)c3c2)c1OCC(=O)O [2-56, 2-{2-[4-(4-aminopiperidin-1-yl)-3-(3,5-difluorophenyl)quinolin-6-yl]-6-cyanophenoxy}acetic acid], which EC50 is on record?
**A.** 0.01 to 0.1 µM

**Q.** Which EC50 does the source give for N#Cc1cccc(-c2ccc3ncc(-c4cc(F)cc(F)c4)c(N4CCC(N)CC4)c3c2)c1OCCCC(=O)O [2-57, 4-{2-[4-(4-aminopiperidin-1-yl)-3-(3,5-difluorophenyl)quinolin-6-yl]-6-cyanophenoxy}butanoic acid] here?
**A.** 0.01 to 0.1 µM

**Q.** Which EC50 [1] does the source give for N#Cc1cccc(-c2ccc3ncc(-c4cc(F)cc(F)c4)c(N4CC[C@@H](N)[C@H](F)C4)c3c2)c1O [2-59, 3-{4-[(3R,4R)-4-amino-3-fluoropiperidin-1-yl]-3-(3,5-difluorophenyl)quinolin-6-yl}-2-hydroxybenzonitrile] here?
**A.** < 0.01 µM

**Q.** Which EC50 does the source give for CO[C@H]1CN(c2c(-c3cc(F)cc(F)c3)cnc3ccc(-c4cccc(C#N)c4O)cc23)CC[C@H]1N [2-61, 3-{4-[(3S,4R)-4-amino-3-methoxypiperidin-1-yl]-3-(3,5-difluorophenyl)quinolin-6-yl}-2-hydroxybenzonitrile] here?
**A.** 0.01 to 0.1 µM

**Q.** With COCOc1c(C#N)cccc1-c1ccc2ncc(-c3cc(F)cc(F)c3)c(N3CC[C@H](N)[C@H](OC)C3)c2c1 [2-62, 3-{4-[(3R,4S)-4-amino-3-methoxypiperidin-1-yl]-3-(3,5-difluorophenyl)quinolin-6-yl}-2-(methoxymethoxy)benzonitrile] as the compound, how does the EC50 [1] read?
**A.** < 0.01 µM

**Q.** Which EC50 [1] does the source give for CC(=O)OCCOc1c(C#N)cccc1-c1ccc2ncc(-c3cc(F)cc(F)c3)c(N3CCC(N)CC3)c2c1 [2-64, 2-{2-[4-(4-aminopiperidin-1-yl)-3-(3,5-difluorophenyl)quinolin-6-yl]-6-cyanophenoxy}ethyl acetate] here?
**A.** < 0.01 µM

**Q.** For N#Cc1cccc(-c2ccc3ncc(-c4cc(F)cc(F)c4)c(N4CCC(N)CC4)c3c2)c1OCCO [2-65, 3-[4-(4-aminopiperidin-1-yl)-3-(3,5-difluorophenyl)quinolin-6-yl]-2-(2-hydroxyethoxy)benzonitrile], which EC50 [1] is on record?
**A.** < 0.01 µM

**Q.** CO[C@@H]1CN(c2c(-c3cc(F)cc(F)c3)cnc3ccc(-c4cccc(C#N)c4O)cc23)CC[C@@H]1N [2-66, 3-{4-[(3R,4S)-4-amino-3-methoxypiperidin-1-yl]-3-(3,5-difluorophenyl)quinolin-6-yl}-2-hydroxybenzonitrile] was tested. Which EC50 did it give?
**A.** 0.01 to 0.1 µM

**Q.** With NC(=O)c1cccc(-c2ccc3ncc(-c4cc(F)cc(F)c4)c(N4CCC(N)CC4)c3c2)c1OC(CO)CO [2-67, 3-[4-(4-aminopiperidin-1-yl)-3-(3,5-difluorophenyl)quinolin-6-yl]-2-[(1,3-dihydroxypropan-2-yl)oxy]benzamide] as the compound, how does the EC50 [1] read?
**A.** < 0.01 µM

**Q.** N#Cc1cccc(-c2ccc3ncc(-c4cc(F)cc(OC5COC5)c4)c(N4CCC(N)CC4)c3c2)c1O [2-69, 3-[4-(4-aminopiperidin-1-yl)-3-[3-fluoro-5-(oxetan-3-yloxy)phenyl]quinolin-6-yl]-2-hydroxybenzonitrile] was tested. Which EC50 did it give?
**A.** 0.01 to 0.1 µM

**Q.** How did the EC50 turn out when CO/N=C/c1cc(F)cc(-c2cnc3ccc(-c4cccc(C#N)c4O)cc3c2N2CCC(N)CC2)c1 [2-70, 3-[4-(4-aminopiperidin-1-yl)-3-{3-fluoro-5-[(1E)-(methoxyimino)methyl]phenyl}quinolin-6-yl]-2-hydroxybenzonitrile] was run?
**A.** 0.01 to 0.1 µM
